From ChEMBL document CHEMBL5212743, “Selectivity Literature for EUbOPEN Chemogenomics Library wave 3” (2023)

Columns and labels:
[1] = biological target: T1, Mitogen-activated protein kinase kinase kinase 19 (Homo sapiens) (UniProt Q56UN5); assay: Selectivity interaction (KinomeScan (DiscoverX)) EUB0000305b MAP3K19; conditions: CellTiter-Glo assay (Promega, proliferation in ACHN cells): IC50 = […] nM, https://www.sgc-ffm.uni-frankfurt.de/#!specificprobeove, at 100 nM
T1 sequence (whole entry): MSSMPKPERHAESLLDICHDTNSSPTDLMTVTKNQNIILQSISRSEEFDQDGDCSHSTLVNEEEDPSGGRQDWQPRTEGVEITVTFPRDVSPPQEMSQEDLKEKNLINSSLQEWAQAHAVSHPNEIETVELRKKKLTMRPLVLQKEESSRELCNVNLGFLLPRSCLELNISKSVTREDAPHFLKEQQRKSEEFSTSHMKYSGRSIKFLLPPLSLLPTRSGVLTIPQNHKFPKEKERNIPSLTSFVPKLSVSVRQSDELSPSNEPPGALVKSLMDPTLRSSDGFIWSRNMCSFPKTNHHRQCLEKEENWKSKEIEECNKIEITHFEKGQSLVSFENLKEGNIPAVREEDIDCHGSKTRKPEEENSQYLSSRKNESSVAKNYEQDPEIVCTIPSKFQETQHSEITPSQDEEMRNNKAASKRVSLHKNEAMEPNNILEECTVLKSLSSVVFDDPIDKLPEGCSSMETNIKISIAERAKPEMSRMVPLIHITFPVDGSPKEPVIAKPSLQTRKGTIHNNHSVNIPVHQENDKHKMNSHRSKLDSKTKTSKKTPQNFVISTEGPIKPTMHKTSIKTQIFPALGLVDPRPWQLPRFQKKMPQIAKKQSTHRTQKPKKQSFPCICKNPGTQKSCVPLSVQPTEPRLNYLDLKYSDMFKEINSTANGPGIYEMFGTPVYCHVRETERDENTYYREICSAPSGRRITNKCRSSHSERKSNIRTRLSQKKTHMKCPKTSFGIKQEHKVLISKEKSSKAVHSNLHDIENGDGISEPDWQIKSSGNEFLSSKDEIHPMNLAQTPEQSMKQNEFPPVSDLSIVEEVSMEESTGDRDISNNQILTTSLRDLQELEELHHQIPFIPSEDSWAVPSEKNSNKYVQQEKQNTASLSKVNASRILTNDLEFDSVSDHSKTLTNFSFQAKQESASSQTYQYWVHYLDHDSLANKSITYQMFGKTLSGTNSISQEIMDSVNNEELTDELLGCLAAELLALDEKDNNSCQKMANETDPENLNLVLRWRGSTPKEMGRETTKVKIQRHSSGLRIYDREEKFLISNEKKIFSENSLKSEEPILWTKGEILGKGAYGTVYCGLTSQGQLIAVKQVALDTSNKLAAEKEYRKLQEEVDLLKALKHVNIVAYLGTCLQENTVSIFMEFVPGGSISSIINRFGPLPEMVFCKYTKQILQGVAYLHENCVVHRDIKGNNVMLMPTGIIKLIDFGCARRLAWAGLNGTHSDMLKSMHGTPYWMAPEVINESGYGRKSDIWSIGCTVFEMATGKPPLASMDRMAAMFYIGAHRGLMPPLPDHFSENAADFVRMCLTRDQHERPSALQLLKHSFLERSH

[2] = biological target: High affinity nerve growth factor receptor (Homo sapiens, UniProt P04629); conditions: at 1 µM
[3] = biological target: Tyrosine-protein kinase ABL1 (Homo sapiens, UniProt P00519); conditions: at 1 µM
[4] = biological target: T2, Tyrosine-protein kinase Lck (Homo sapiens, UniProt P06239); conditions: at 1 µM
Target sequence in this assay (P06239 whole entry, looked up): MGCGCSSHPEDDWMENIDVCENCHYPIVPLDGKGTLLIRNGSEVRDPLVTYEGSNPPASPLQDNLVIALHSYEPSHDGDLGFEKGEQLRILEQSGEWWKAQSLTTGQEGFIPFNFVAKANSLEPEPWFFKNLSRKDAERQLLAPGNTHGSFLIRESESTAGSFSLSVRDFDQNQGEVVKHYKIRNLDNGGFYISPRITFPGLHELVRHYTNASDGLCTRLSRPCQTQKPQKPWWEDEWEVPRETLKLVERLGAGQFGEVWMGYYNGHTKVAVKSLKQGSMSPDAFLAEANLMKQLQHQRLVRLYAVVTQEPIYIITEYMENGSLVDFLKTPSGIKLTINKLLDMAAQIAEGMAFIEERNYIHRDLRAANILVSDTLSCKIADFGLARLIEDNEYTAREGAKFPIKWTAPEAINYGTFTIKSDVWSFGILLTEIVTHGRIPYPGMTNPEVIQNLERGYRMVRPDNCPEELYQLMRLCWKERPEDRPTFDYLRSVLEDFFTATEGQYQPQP

[5] = biological target: Proto-oncogene tyrosine-protein kinase ROS (Homo sapiens) (UniProt P08922); conditions: at 1 µM
[6] = biological target: Macrophage-stimulating protein receptor (Homo sapiens) (UniProt Q04912); conditions: at 1 µM
[7] = biological target: T2, Tyrosine-protein kinase Lck; assay: Selectivity interaction (Kinase panel (University of Dundee)) EUB0000169b LCK; conditions: at 10 µM
Target sequence in this assay (P06239 2-509 limits assumed): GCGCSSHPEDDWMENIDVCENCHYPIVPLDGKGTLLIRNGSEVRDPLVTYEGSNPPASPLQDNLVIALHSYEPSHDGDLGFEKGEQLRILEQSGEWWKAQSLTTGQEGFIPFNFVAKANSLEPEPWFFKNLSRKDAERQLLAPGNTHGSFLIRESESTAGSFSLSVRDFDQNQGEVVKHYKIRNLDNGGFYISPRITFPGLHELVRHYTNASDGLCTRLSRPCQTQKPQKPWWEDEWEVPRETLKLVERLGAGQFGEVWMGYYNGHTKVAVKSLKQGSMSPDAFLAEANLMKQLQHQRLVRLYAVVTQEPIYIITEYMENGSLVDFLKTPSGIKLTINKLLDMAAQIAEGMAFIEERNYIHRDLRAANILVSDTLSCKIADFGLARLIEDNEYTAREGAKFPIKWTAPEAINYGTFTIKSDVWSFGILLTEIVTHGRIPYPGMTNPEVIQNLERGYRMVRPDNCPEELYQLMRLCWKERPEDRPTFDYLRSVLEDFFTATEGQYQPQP

[8] = biological target: Mitogen-activated protein kinase kinase kinase 1 (Homo sapiens) (UniProt Q13233); assay: Selectivity interaction (KinomeScan (DiscoverX)) EUB0000702a MAP3K1; conditions: at 1 µM
[9] = system: Receptor-type tyrosine-protein kinase FLT3 (Homo sapiens), P36888 [UNDEFINED MUTATION]; assay: Selectivity interaction (KinomeScan (DiscoverX)) EUB0000702a FLT3; conditions: at 1 µM
[10] = biological target: T3, Receptor-interacting serine/threonine-protein kinase 4 (Homo sapiens) (UniProt P57078); assay: Selectivity interaction (KinomeScan (DiscoverX)) EUB0000702a RIPK4; conditions: at 1 µM
T3 sequence (whole entry): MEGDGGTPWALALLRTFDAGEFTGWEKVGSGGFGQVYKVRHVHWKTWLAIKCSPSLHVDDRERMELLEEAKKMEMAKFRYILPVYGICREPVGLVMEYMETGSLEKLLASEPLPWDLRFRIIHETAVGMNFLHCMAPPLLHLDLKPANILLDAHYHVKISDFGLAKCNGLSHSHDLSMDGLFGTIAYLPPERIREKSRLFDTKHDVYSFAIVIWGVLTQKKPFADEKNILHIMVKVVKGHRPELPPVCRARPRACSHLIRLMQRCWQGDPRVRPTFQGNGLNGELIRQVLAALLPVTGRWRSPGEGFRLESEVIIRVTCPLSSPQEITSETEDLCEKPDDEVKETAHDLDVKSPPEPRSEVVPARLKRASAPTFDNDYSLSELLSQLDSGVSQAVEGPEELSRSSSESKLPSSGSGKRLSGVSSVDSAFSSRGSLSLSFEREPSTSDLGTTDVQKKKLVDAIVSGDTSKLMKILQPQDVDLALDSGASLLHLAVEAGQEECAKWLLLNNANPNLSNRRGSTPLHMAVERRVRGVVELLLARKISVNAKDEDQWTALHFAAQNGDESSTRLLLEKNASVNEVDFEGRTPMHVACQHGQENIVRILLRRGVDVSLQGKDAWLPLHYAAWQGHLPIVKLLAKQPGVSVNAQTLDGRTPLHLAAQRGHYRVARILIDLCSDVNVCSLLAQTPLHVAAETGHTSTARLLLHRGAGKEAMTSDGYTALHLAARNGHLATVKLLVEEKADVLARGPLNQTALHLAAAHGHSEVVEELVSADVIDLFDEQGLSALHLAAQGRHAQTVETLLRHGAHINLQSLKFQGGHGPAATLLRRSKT

[11] = biological target: Serine/threonine-protein kinase RIO1 (Homo sapiens) (UniProt Q9BRS2); assay: Selectivity interaction (KinomeScan (DiscoverX)) EUB0000702a RIOK1; conditions: at 1 µM
[12] = biological target: Tyrosine-protein kinase ABL1 (Homo sapiens, UniProt P00519, T315I); assay: Selectivity interaction (KinomeScan (DiscoverX, competition-binding assay)) EUB0000178b ABL1
[13] = biological target: Serine/threonine-protein kinase 3 (Homo sapiens) (UniProt Q13188); assay: Selectivity interaction (KinomeScan (DiscoverX)) EUB0000698a STK3; conditions: at 10 µM
Sequence of Serine/threonine-protein kinase 3 (Homo sapiens) (Q13188 whole entry): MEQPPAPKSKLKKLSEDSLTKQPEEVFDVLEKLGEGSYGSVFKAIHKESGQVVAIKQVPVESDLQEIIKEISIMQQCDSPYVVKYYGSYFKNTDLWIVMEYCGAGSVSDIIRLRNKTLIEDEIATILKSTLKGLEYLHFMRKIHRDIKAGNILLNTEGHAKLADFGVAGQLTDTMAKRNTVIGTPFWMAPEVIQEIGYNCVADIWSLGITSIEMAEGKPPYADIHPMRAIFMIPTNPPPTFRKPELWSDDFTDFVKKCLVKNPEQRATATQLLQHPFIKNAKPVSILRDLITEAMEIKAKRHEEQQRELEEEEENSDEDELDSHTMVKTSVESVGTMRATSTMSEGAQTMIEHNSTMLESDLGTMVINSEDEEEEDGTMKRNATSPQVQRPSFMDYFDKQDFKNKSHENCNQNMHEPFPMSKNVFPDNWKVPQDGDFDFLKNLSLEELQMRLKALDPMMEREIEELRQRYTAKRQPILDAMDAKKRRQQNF

Sequence of Mitogen-activated protein kinase kinase kinase 1 (Homo sapiens) (Q13233 whole entry): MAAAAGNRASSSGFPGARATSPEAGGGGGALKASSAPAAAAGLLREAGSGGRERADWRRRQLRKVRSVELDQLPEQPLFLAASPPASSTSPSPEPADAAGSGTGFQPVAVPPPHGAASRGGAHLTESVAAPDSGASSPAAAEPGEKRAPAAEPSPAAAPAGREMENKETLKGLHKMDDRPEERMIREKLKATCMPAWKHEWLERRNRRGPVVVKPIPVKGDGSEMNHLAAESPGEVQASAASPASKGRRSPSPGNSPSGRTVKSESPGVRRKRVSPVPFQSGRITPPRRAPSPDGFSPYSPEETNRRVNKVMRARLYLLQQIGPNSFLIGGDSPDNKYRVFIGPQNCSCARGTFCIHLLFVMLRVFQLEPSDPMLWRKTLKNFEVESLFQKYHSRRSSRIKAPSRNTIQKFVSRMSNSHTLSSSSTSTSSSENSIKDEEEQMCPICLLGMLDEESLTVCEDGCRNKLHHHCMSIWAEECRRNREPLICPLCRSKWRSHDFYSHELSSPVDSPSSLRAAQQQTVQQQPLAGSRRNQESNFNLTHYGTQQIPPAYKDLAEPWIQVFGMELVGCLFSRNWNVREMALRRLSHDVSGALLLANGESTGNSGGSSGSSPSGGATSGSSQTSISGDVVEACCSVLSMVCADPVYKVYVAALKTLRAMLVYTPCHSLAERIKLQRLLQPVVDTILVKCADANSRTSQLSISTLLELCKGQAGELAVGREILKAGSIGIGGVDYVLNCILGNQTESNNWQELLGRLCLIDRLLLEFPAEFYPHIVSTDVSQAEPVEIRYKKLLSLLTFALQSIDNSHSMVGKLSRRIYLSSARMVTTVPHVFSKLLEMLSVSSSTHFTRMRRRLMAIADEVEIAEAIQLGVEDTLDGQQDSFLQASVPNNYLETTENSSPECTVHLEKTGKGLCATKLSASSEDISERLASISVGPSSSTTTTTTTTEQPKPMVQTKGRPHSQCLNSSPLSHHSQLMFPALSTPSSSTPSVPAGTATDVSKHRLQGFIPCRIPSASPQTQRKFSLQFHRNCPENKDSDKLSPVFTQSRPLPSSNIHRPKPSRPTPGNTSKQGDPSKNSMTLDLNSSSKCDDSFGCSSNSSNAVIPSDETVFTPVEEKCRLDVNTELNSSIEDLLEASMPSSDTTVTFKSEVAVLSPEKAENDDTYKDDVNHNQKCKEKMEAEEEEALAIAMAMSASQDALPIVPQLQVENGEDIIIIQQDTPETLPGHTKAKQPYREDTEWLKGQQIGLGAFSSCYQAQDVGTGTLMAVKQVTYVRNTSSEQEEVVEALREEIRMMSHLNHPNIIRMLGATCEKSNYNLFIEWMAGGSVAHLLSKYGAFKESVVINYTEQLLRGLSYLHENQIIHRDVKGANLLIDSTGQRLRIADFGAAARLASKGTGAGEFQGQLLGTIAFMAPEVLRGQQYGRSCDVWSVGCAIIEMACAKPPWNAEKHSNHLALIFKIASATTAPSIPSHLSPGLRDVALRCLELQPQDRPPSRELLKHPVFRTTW
Sequence of Serine/threonine-protein kinase RIO1 (Homo sapiens) (Q9BRS2 whole entry): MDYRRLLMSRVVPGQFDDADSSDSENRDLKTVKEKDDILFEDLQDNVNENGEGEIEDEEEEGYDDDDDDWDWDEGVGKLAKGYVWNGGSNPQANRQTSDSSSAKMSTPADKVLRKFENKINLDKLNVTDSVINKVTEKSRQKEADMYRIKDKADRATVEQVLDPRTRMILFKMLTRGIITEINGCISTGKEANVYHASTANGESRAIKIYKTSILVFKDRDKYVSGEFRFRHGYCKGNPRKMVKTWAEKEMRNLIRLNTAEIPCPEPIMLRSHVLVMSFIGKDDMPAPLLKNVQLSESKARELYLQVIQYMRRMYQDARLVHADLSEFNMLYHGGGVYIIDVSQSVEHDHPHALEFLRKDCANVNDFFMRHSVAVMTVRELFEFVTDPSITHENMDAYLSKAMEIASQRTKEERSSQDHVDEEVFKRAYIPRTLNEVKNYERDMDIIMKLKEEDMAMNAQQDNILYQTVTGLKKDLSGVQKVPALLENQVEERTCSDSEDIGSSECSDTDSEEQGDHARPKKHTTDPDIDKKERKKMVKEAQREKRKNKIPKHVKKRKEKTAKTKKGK
Sequence of Macrophage-stimulating protein receptor (Homo sapiens) (Q04912 whole entry): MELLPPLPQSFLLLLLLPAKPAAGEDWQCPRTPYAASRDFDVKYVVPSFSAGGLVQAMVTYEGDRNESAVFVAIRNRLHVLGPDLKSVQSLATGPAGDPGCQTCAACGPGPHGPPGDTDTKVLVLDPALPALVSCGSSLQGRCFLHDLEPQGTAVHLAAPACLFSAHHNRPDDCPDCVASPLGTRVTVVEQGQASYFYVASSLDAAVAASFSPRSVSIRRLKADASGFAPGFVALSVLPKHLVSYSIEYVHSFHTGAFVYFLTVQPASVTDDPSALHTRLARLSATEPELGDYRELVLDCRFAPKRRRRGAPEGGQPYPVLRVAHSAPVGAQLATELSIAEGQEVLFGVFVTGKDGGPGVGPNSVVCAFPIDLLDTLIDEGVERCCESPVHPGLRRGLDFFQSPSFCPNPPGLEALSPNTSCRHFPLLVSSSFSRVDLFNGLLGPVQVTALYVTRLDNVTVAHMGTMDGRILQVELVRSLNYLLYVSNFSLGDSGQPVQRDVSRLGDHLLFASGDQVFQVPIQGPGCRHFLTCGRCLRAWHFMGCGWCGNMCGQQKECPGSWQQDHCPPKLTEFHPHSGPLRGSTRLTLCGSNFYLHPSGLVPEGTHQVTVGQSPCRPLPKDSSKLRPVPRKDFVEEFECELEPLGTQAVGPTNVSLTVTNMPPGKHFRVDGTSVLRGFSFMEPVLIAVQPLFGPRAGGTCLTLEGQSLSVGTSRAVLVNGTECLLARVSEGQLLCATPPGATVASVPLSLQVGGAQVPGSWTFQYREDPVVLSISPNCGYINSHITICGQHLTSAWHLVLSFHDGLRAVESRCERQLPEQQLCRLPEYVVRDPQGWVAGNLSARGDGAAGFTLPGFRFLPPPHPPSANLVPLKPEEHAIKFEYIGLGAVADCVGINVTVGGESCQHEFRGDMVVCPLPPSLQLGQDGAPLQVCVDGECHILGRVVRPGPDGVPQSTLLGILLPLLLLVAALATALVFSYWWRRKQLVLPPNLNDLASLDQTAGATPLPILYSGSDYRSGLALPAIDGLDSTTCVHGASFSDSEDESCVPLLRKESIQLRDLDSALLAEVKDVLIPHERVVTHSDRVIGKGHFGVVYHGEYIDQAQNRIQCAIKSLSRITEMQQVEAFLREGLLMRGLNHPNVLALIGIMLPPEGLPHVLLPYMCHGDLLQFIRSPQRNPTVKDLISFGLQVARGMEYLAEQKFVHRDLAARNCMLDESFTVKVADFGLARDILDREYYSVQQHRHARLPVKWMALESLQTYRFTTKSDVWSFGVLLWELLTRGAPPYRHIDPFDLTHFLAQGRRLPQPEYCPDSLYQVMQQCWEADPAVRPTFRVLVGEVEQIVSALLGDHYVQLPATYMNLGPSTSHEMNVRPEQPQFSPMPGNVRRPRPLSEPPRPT

C[C@H](c1ccnc(Nc2nc3ccc(-c4cc(N(C)C)ncn4)cc3[nH]2)c1)N1CCN(C(=O)CC(F)(F)F)CC1 [BAY-985]
% of control [1]: 10%

CCOc1cn(-c2ccc(F)cc2C)nc1C(=O)Nc1ccc(Oc2ccnc3cc(OC)c(OC)cc23)c(F)c1
% of control [2]: < 10% | % of control [3]: < 10% | % of control [4]: < 10% | % of control [5]: < 10% | % of control [6]: < 10%

CC[C@@H]1C(=O)N(C)c2cnc(Nc3ccc(C(=O)NC4CCN(C)CC4)cc3OC)nc2N1C1CCCC1
% of control [7]: 55%

CN(c1ccnc(CNc2nc(Nc3ccc4c(c3)CC(=O)N4)ncc2C(F)(F)F)n1)S(C)(=O)=O [PF-00911705]
% of control [8]: 0% | % of control [9]: 0% | % of control [10]: 6% | % of control [11]: 9.7%

CN1C(=O)c2sccc2N(C)c2nc(Nc3ccc(S(N)(=O)=O)cc3)ncc21
Kd [12]: 14 nM

COc1cc2ncn(-c3cc(OCc4ccccc4C(F)(F)F)c(C(N)=O)s3)c2cc1OC [GW843682X]
% of control [13]: 1.8%
